Laboratory results reported in patent US20100041089A1, “IMPROVED METHOD FOR DETECTING CHEMICAL […]” (priority 2006, published 2010).

Tested on: yeast genes (expressed mRNA)
Test: DNA chip measurement of expressed mRNA of yeast genes after culture with a toxic chemical substance
Type: cell-based, Saccharomyces cerevisiae S288C
Conditions: for level of expressed mRNA in the presence of chemical substance / level in the absence of chemical substance: cultured two hours with the chemical substance; for The level of expressed mRNA in the presence of chemical substance/The level of expressed mRNA in the absence of chemical substance: cultured two hours with substance
Method in brief: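 Each expression value is the mRNA level in chemical-treated yeast divided by that in untreated yeast, from Cy3/Cy5 fluorescence on a whole-genome chip. Log-phase S288C cells in YPD at 25° C had received a sublethal, growth-inhibiting dose for two hours. Intensity denotes control expression relative to the all-gene mean.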

[Cl][Pb][Cl] [(4), PbCl2]
level of expressed mRNA in the presence of chemical substance / level in the absence of chemical substance (yeast gene YJL097W): 1.6
The level of expressed mRNA in the presence of chemical substance/The level of expressed mRNA in the absence of chemical substance (yeast gene YJL151C): 1.2
The level of expressed mRNA in the presence of chemical substance/The level of expressed mRNA in the absence of chemical substance (yeast gene YJL152W): 1.3
The level of expressed mRNA in the presence of chemical substance/The level of expressed mRNA in the absence of chemical substance (yeast gene YJL161W): 4.6
The level of expressed mRNA in the presence of chemical substance/The level of expressed mRNA in the absence of chemical substance (yeast gene YJL171C): 1.4
The level of expressed mRNA in the presence of chemical substance/The level of expressed mRNA in the absence of chemical substance (yeast gene YJR008W): 1.7
level of expressed mRNA in the presence of chemical substance / level in the absence of chemical substance (yeast gene YJR030C): 1.2
The level of expressed mRNA in the presence of chemical substance/The level of expressed mRNA in the absence of chemical substance (yeast gene YJR054W): 0.9
level of expressed mRNA in the presence of chemical substance / level in the absence of chemical substance (yeast gene YKL051W): 0.8
The level of expressed mRNA in the presence of chemical substance/The level of expressed mRNA in the absence of chemical substance (yeast gene YKL071W): 2.8
The level of expressed mRNA in the presence of chemical substance/The level of expressed mRNA in the absence of chemical substance (yeast gene YKL086W): 2.6
level of expressed mRNA in the presence of chemical substance / level in the absence of chemical substance (yeast gene YKL097C): 1.4
level of expressed mRNA in the presence of chemical substance / level in the absence of chemical substance (yeast gene YKL100C): 1.6
The level of expressed mRNA in the presence of chemical substance/The level of expressed mRNA in the absence of chemical substance (yeast gene YKL151C): 2.5
The level of expressed mRNA in the presence of chemical substance/The level of expressed mRNA in the absence of chemical substance (yeast gene YKL153W): 0.7
The level of expressed mRNA in the presence of chemical substance/The level of expressed mRNA in the absence of chemical substance (yeast gene YKL195W): 1.1
level of expressed mRNA in the presence of chemical substance / level in the absence of chemical substance (yeast gene YKR040C): 2.9
The level of expressed mRNA in the presence of chemical substance/The level of expressed mRNA in the absence of chemical substance (yeast gene YKR091W): 3.5
The level of expressed mRNA in the presence of chemical substance/The level of expressed mRNA in the absence of chemical substance (yeast gene YLR054C): 2.4
The level of expressed mRNA in the presence of chemical substance/The level of expressed mRNA in the absence of chemical substance (yeast gene YLR149C): 2.3
The level of expressed mRNA in the presence of chemical substance/The level of expressed mRNA in the absence of chemical substance (yeast gene YLR152C): 0.9
The level of expressed mRNA in the presence of chemical substance/The level of expressed mRNA in the absence of chemical substance (yeast gene YLR194C): 3.6
level of expressed mRNA in the presence of chemical substance / level in the absence of chemical substance (yeast gene YLR226W): 1.0
The level of expressed mRNA in the presence of chemical substance/The level of expressed mRNA in the absence of chemical substance (yeast gene YLR324W): 1.0
level of expressed mRNA in the presence of chemical substance / level in the absence of chemical substance (yeast gene YLR338W): 1.1
The level of expressed mRNA in the presence of chemical substance/The level of expressed mRNA in the absence of chemical substance (yeast gene YLR350W): 2.3
The level of expressed mRNA in the presence of chemical substance/The level of expressed mRNA in the absence of chemical substance (yeast gene YLR387C): 0.6
level of expressed mRNA in the presence of chemical substance / level in the absence of chemical substance (yeast gene YLR392C): 1.9
level of expressed mRNA in the presence of chemical substance / level in the absence of chemical substance (yeast gene YLR427W): 0.5
The level of expressed mRNA in the presence of chemical substance/The level of expressed mRNA in the absence of chemical substance (yeast gene YLR460C): 1.1
level of expressed mRNA in the presence of chemical substance / level in the absence of chemical substance (yeast gene YML013W): 0.6
level of expressed mRNA in the presence of chemical substance / level in the absence of chemical substance (yeast gene YML029W): 1.0
level of expressed mRNA in the presence of chemical substance / level in the absence of chemical substance (yeast gene YML041C): 1.0
level of expressed mRNA in the presence of chemical substance / level in the absence of chemical substance (yeast gene YML079W): 1.5
The level of expressed mRNA in the presence of chemical substance/The level of expressed mRNA in the absence of chemical substance (yeast gene YML117W): 1.6
The level of expressed mRNA in the presence of chemical substance/The level of expressed mRNA in the absence of chemical substance (yeast gene YMR009W): 1.9
The level of expressed mRNA in the presence of chemical substance/The level of expressed mRNA in the absence of chemical substance (yeast gene YMR067C): 0.4
level of expressed mRNA in the presence of chemical substance / level in the absence of chemical substance (yeast gene YMR068W): 1.5
level of expressed mRNA in the presence of chemical substance / level in the absence of chemical substance (yeast gene YMR071C): 1.9
The level of expressed mRNA in the presence of chemical substance/The level of expressed mRNA in the absence of chemical substance (yeast gene YMR090W): 3.5
The level of expressed mRNA in the presence of chemical substance/The level of expressed mRNA in the absence of chemical substance (yeast gene YMR095C): 1.0
The level of expressed mRNA in the presence of chemical substance/The level of expressed mRNA in the absence of chemical substance (yeast gene YMR097C): 1.6
The level of expressed mRNA in the presence of chemical substance/The level of expressed mRNA in the absence of chemical substance (yeast gene YMR102C): 0.8
The level of expressed mRNA in the presence of chemical substance/The level of expressed mRNA in the absence of chemical substance (yeast gene YMR107W): 18.4
level of expressed mRNA in the presence of chemical substance / level in the absence of chemical substance (yeast gene YMR160W): 1.2
The level of expressed mRNA in the presence of chemical substance/The level of expressed mRNA in the absence of chemical substance (yeast gene YMR180C): 1.3
The level of expressed mRNA in the presence of chemical substance/The level of expressed mRNA in the absence of chemical substance (yeast gene YMR184W): 1.1
The level of expressed mRNA in the presence of chemical substance/The level of expressed mRNA in the absence of chemical substance (yeast gene YMR191W): 1.6
The level of expressed mRNA in the presence of chemical substance/The level of expressed mRNA in the absence of chemical substance (yeast gene YMR295C): 1.6
The level of expressed mRNA in the presence of chemical substance/The level of expressed mRNA in the absence of chemical substance (yeast gene YMR316W): 1.9
level of expressed mRNA in the presence of chemical substance / level in the absence of chemical substance (yeast gene YNL026W): 0.8
The level of expressed mRNA in the presence of chemical substance/The level of expressed mRNA in the absence of chemical substance (yeast gene YNL044W): 1.3
